#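 Five compound concentrations were applied to cells in 96-well plates for 48 hours; endpoints were derived by simple linear interpolation of the resulting dose-response curve. GI50: concentration for 50% inhibition of growth. TGI: total growth inhibition.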
# Key:
# Assay in all cases: inhibition of tumour cell growth, NCI panel, 48 h
# [1] = test system: 786-0 renal
# [2] = test system: A549 NSCLC
# [3] = test system: ACHN renal
# [4] = test system: BT-549 breast
# [5] = test system: CAKI-1 renal
# [6] = test system: CCRF-CEM leukemia
# [7] = test system: COLO 205 colon
# [8] = test system: DU-145 prostate
# [9] = test system: EKVX NSCLC
# [10] = test system: HCC-2998 colon
# [11] = test system: HCT-116 colon
# [12] = test system: HCT-15 colon
# [13] = test system: HL-60(TB) leukemia
# [14] = test system: HOP-92 NSCLC
# [15] = test system: HS 578T breast
# [16] = test system: IGROV1 ovarian
# [17] = test system: K-562 leukemia
# [18] = test system: KM12 colon
# [19] = test system: LOX IMVI melanoma
# [20] = test system: M14 melanoma
# [21] = test system: MALME-3M melanoma
# [22] = test system: MCF7 breast
# [23] = test system: MDA-MB-231 breast
# [24] = test system: MDA-MB-435
# [25] = test system: MDA-N
# [26] = test system: MOLT-4 leukemia
# [27] = test system: NCI-H226 lung
# [28] = test system: NCI-H460 lung
# [29] = test system: NCI-H522 lung
# [30] = test system: NCI/ADR-RES ovarian
# [31] = test system: OVCAR-3 ovarian
# [32] = test system: OVCAR-4 ovarian
# [33] = test system: OVCAR-5 ovarian
# [34] = test system: OVCAR-8 ovarian
# [35] = test system: PC-3 prostate
# [36] = test system: RPMI-8226 leukemia
# [37] = test system: RXF 393 renal
# [38] = test system: SF-268 CNS
# [39] = test system: SF-295 CNS
# [40] = test system: SF-539 CNS
# [41] = test system: SK-MEL-2 melanoma
# [42] = test system: SK-MEL-28 melanoma
# [43] = test system: SK-MEL-5 melanoma
# [44] = test system: SN12C renal
# [45] = test system: SNB-19 CNS
# [46] = test system: SNB-75 CNS
# [47] = test system: SR leukemia
# [48] = test system: SW-620 colon
# [49] = test system: T-47D breast
# [50] = test system: TK-10 renal
# [51] = test system: U251 CNS
# [52] = test system: UACC-257 melanoma
# [53] = test system: UACC-62 melanoma
# [54] = test system: UO-31 renal
# [55] = test system: A498 renal
# [56] = test system: HOP-62 NSCLC
# [57] = test system: HT29 colon
# [58] = test system: NCI-H23 lung
# [59] = test system: SK-OV-3 ovarian
compound,measurement,setting,value
Cc1ccc(NC(=O)c2cc(S(=O)(=O)N3CCNNC3=O)c(S)cc2Cl)cc1,TGI,[1],> 100 µM
same,TGI,[2],> 100 µM
same,TGI,[3],> 100 µM
same,TGI,[4],87.6 µM
same,TGI,[5],> 100 µM
same,TGI,[6],> 100 µM
same,TGI,[7],> 100 µM
same,TGI,[8],> 100 µM
same,TGI,[9],> 100 µM
same,TGI,[10],> 100 µM
same,TGI,[11],> 100 µM
same,TGI,[12],> 100 µM
same,TGI,[13],> 100 µM
same,TGI,[14],> 100 µM
same,TGI,[15],> 100 µM
same,TGI,[16],> 100 µM
same,TGI,[17],> 100 µM
same,TGI,[18],> 100 µM
same,TGI,[19],> 100 µM
same,TGI,[20],> 100 µM
same,TGI,[21],> 100 µM
same,TGI,[22],> 100 µM
same,TGI,[23],> 100 µM
same,TGI,[24],> 100 µM
same,TGI,[25],> 100 µM
same,TGI,[26],> 100 µM
same,TGI,[27],> 100 µM
same,TGI,[28],> 100 µM
same,TGI,[29],> 100 µM
same,TGI,[30],> 100 µM
same,TGI,[31],> 100 µM
same,TGI,[32],> 100 µM
same,TGI,[33],> 100 µM
same,TGI,[34],> 100 µM
same,TGI,[35],> 100 µM
same,TGI,[36],> 100 µM
same,TGI,[37],80.6 µM
same,TGI,[38],> 100 µM
same,TGI,[39],> 100 µM
same,TGI,[40],> 100 µM
same,TGI,[41],> 100 µM
same,TGI,[42],> 100 µM
same,TGI,[43],> 100 µM
same,TGI,[44],> 100 µM
same,TGI,[45],> 100 µM
same,TGI,[46],> 100 µM
same,TGI,[47],> 100 µM
same,TGI,[48],> 100 µM
same,TGI,[49],> 100 µM
same,TGI,[50],> 100 µM
same,TGI,[51],> 100 µM
same,TGI,[52],> 100 µM
same,TGI,[53],> 100 µM
same,TGI,[54],> 100 µM
O=C1Nc2ccccc2/C1=C\c1c(Cl)[nH]c2ccccc12,TGI,[1],3.66 µM
same,TGI,[55],4.78 µM
same,TGI,[2],13.3 µM
same,TGI,[3],13.1 µM
same,TGI,[4],6.22 µM
same,TGI,[5],7.77 µM
same,TGI,[6],3.44 µM
same,TGI,[7],1.23 µM
same,TGI,[8],20 µM
same,TGI,[9],5.29 µM
same,TGI,[10],1.68 µM
same,TGI,[12],17.5 µM
same,TGI,[13],0.728 µM
same,TGI,[56],7.51 µM
same,TGI,[14],3.6 µM
same,TGI,[15],2.57 µM
same,TGI,[57],0.598 µM
same,TGI,[16],1.35 µM
same,TGI,[17],7.49 µM
same,TGI,[18],1.67 µM
same,TGI,[19],6.15 µM
same,TGI,[20],4.12 µM
same,TGI,[21],6.39 µM
same,TGI,[22],10.6 µM
same,TGI,[23],14.3 µM
same,TGI,[24],0.417 µM
same,TGI,[25],0.486 µM
same,TGI,[26],12.6 µM
same,TGI,[27],35.5 µM
same,TGI,[58],16.1 µM
same,TGI,[28],2.59 µM
same,TGI,[29],3.54 µM
same,TGI,[30],1.31 µM
same,TGI,[31],17.5 µM
same,TGI,[33],5.05 µM
same,TGI,[34],8.51 µM
same,TGI,[35],3.46 µM
same,TGI,[36],3.34 µM
same,TGI,[37],3.55 µM
same,TGI,[38],7.72 µM
same,TGI,[39],0.956 µM
same,TGI,[40],1.43 µM
same,TGI,[41],6.67 µM
same,TGI,[42],0.78 µM
same,TGI,[43],2.04 µM
same,TGI,[59],1.2 µM
same,TGI,[44],17.5 µM
same,TGI,[45],5.21 µM
same,TGI,[47],0.918 µM
same,TGI,[48],5.45 µM
same,TGI,[49],> 100 µM
same,TGI,[50],6.65 µM
same,TGI,[51],9.15 µM
same,TGI,[52],17 µM
same,TGI,[53],9.75 µM
same,TGI,[54],6.84 µM
O=C1c2cccnc2-c2nc(-c3ccccc3)cc3c2c1nc1ccccc13,GI50,[1],5.88 µM
same,TGI,[1],20.1 µM
same,GI50,[55],17.1 µM
same,TGI,[55],31.2 µM
same,GI50,[2],6.97 µM
same,TGI,[2],21 µM
same,GI50,[3],1.09 µM
same,TGI,[3],8 µM
same,GI50,[4],5.15 µM
same,TGI,[4],21.3 µM
same,GI50,[5],6.67 µM
same,TGI,[5],17.5 µM
same,GI50,[6],2.98 µM
same,TGI,[6],29.7 µM
same,GI50,[7],6 µM
same,TGI,[7],19 µM
same,GI50,[8],13.6 µM
same,TGI,[8],30.2 µM
same,GI50,[9],5.1 µM
same,TGI,[9],18.1 µM
same,GI50,[10],4.95 µM
same,TGI,[10],18.5 µM
same,GI50,[11],1.91 µM
same,TGI,[11],7.2 µM
same,GI50,[12],1.13 µM
same,TGI,[12],5.02 µM
same,GI50,[13],1.12 µM
same,TGI,[13],3.01 µM
same,GI50,[56],14.5 µM
same,TGI,[56],28.3 µM
same,GI50,[14],20.3 µM
same,TGI,[14],80.4 µM
same,GI50,[15],16.6 µM
same,TGI,[15],42.9 µM
same,GI50,[57],2.59 µM
same,TGI,[57],7.16 µM
same,GI50,[16],2.35 µM
same,TGI,[16],8.92 µM
same,GI50,[17],0.658 µM
same,TGI,[17],3.91 µM
same,GI50,[18],4.61 µM
same,TGI,[18],16.1 µM
same,GI50,[19],6.37 µM
same,TGI,[19],32.6 µM
same,GI50,[20],3.57 µM
same,TGI,[20],15.7 µM
same,GI50,[21],3.38 µM
same,TGI,[21],16.1 µM
same,GI50,[22],1.09 µM
same,TGI,[22],4.11 µM
same,GI50,[23],4.33 µM
same,TGI,[23],> 100 µM
same,GI50,[24],1.53 µM
same,TGI,[24],2.96 µM
same,GI50,[25],1.74 µM
same,TGI,[25],3.46 µM
same,GI50,[26],2.5 µM
same,TGI,[26],14.8 µM
same,GI50,[27],9.39 µM
same,TGI,[27],24.1 µM
same,GI50,[58],1.73 µM
same,TGI,[58],7.48 µM
same,GI50,[28],0.844 µM
same,TGI,[28],3.74 µM
same,GI50,[29],0.714 µM
same,TGI,[29],3.06 µM
same,GI50,[30],11.9 µM
same,TGI,[30],32.7 µM
same,GI50,[31],0.31 µM
same,TGI,[31],> 100 µM
same,GI50,[32],4.33 µM
same,TGI,[32],10.1 µM
same,GI50,[33],16.2 µM
same,TGI,[33],30.8 µM
same,GI50,[34],3.06 µM
same,TGI,[34],> 63.1 µM
same,GI50,[35],3.42 µM
same,TGI,[35],73.2 µM
same,GI50,[36],0.21 µM
same,GI50,[37],16 µM
same,TGI,[37],32.3 µM
same,GI50,[38],3.93 µM
same,TGI,[38],18.8 µM
same,GI50,[39],11.4 µM
same,TGI,[39],25.3 µM
same,GI50,[40],17.8 µM
same,TGI,[40],43.3 µM
same,GI50,[41],5.53 µM
same,TGI,[41],20.1 µM
same,GI50,[42],14.8 µM
same,TGI,[42],29.8 µM
same,GI50,[43],1.27 µM
same,TGI,[43],3.88 µM
same,GI50,[59],9.58 µM
same,TGI,[59],25.2 µM
same,GI50,[44],7.14 µM
same,TGI,[44],21.1 µM
same,GI50,[45],3.71 µM
same,TGI,[45],20.1 µM
same,GI50,[46],10.5 µM
same,TGI,[46],23.1 µM
same,GI50,[48],2.56 µM
same,TGI,[48],> 35.2 µM
same,GI50,[49],5.35 µM
same,TGI,[49],44.3 µM
same,GI50,[50],24.3 µM
same,TGI,[50],> 85.2 µM
same,GI50,[51],4.09 µM
same,TGI,[51],19.6 µM
same,GI50,[52],0.835 µM
same,TGI,[52],8.08 µM
same,GI50,[53],3.74 µM
same,TGI,[53],9.01 µM
same,GI50,[54],3.8 µM
same,TGI,[54],11.2 µM

# Reference: PubChem BioAssay (NCI)
